Results on nine molecules are retold here after patent US9144238B2, “Active compound combinations” (BAYER INTELLECTUAL PROPERTY GMBH, priority 2011, dated 2015).

One series relates to Venturia inaequalis. Put plainly: Venturia test (apples)/preventive. The conditions noted are these: Venturia inaequalis, 240 h, read-out: Efficacy in % found; for pest or weed control at 25 ppm: Table 10, 25 ppm a.i.; for pest or weed control at 50 ppm: Table 11, 50 ppm a.i. In kind it is in vivo. As for the experimental part:
(§1) To produce a suitable preparation of active compound, 1 part by weight of active compound is mixed with the stated amounts of solvent and emulsifier, and the concentrate is diluted with water to the desired concentration.
To test for preventive activity, young plants are sprayed with the preparation of active compound at the stated rate of application. After the spray coating has dried on, the plants are inoculated with an aqueous conidia suspension of the causal agent of apple scab (Venturia inaequalis) and then remain for 1 day in an incubation cabinet at approximately 20° C. and a relative atmospheric humidity of 100%.
The plants are then placed in a greenhouse at approximately 21° C. and a relative atmospheric humidity of approximately 90%.
(§2) The test is evaluated 10 days after the inoculation. 0% means an efficacy which corresponds to that of the untreated control, while an efficacy of 100% means that no disease is observed.

Another series relates to Sphaerotheca fuliginea. The series can be described thus: Sphaerotheca test (cucumbers)/preventive. In kind it is in vivo. As for the experimental part: as §1
To test for preventive activity, young plants are sprayed with the preparation of active compound at the stated rate of application. After the spray coating has dried on, the plants are inoculated with an aqueous spore suspension of Sphaerotheca fuliginea. The plants are then placed in a greenhouse at approximately 23° C. and a relative atmospheric humidity of approximately 70%.
The test is evaluated 7 days after the inoculation. 0% means an efficacy which corresponds to that of the untreated control, while an efficacy of 100% means that no disease is observed.
as §2

Another series relates to Botrytis cinerea. The series can be described thus: Botrytis test (beans)/preventive. The class given is in vivo. As for the experimental part: as §1
To test for preventive activity, young plants are sprayed with the preparation of active compound. After the spray coating has dried on, 2 small pieces of agar covered with growth of Botrytis cinerea are placed on each leaf. The inoculated plants are placed in a darkened chamber at 20° C. and a relative atmospheric humidity of 100%.
2 days after the inoculation, the size of the lesions on the leaves is evaluated. 0% means an efficacy which corresponds to that of the untreated control, while an efficacy of 100% means that no disease is observed.
as §2

For the next series, the system named is Alternaria solani. The series can be described thus: whole plant or invertebrate. The class given is in vivo. The conditions noted are these: for Efficacy in % found: in vivo.
The test system of the next series is Phytophthora infestans. The series can be described thus: whole plant or invertebrate. The class given is in vivo. The conditions noted are these: Phytophthora infestans, 72 h, tomatoes; for pest or weed control at 10 ppm: 10 ppm a.i.; for pest or weed control at 0.01 ppm: 0.01 ppm a.i.; for pest or weed control at 0.0025 ppm: 0.0025 ppm a.i.; for pest or weed control at 0.005 ppm: 0.005 ppm a.i.

The conditions of series [1]: pH 2.3.
Experimental: (§3) Measurement of log P values was performed according EEC directive 79/831 Annex V.A8 by HPLC (High Performance Liquid
(§4) Chromatography) on reversed phase columns with the following methods:
(§5) ^[a]Measurement was done at pH 2.3 with 0.1% phosphoric acid and acetonitrile as eluent.
The mark [2] stands for this setting: Alternaria solani, 72 h, read-out: Efficacy in % found.
Where [3] appears, read: read-out: Efficacy in % found, Table 2.
Where [4] appears, read: read-out: Efficacy in % found, Table 3.
The mark [5] stands for this setting: read-out: Efficacy in % found, Table 1.
Setting [6] is: read-out: Efficacy in % found, Table 4.
Setting [7] is: read-out: Efficacy in % found, Table 5.

Like-named read-outs stand apart in the source and are kept apart here.

Experimental for physchem: as §3, §4, §5

Take `O=C(Nc1ccccc1-c1ccc(Cl)cc1)c1cccnc1Cl` [2.2, boscalid]: the pest or weed control at 12.5 ppm in the series with Venturia inaequalis (Table 10, 12.5 ppm a.i.) amounted to 66%. Further, in the series on Sphaerotheca fuliginea (Table 13, 25 ppm a.i.), the “Efficacy in % found” value is 67%.
Consider `N#Cc1c(Cl)c(Cl)c(Cl)c(C#N)c1Cl` [5.4, chlorothalonil], for which the “Efficacy in % found” value with Botrytis cinerea (Table 12, 5 ppm a.i.) was 8%.
Consider `O=C1c2ccccc2C(=O)N1SC(Cl)(Cl)Cl` [5.16, folpet], for which the pest or weed control at 10 ppm in the series with Venturia inaequalis (Table 11, 10 ppm a.i.) turned out to be 43%; in the series with Phytophthora infestans (setting [3]), 3%. The pest or weed control at 5 ppm in the series with Alternaria solani (setting [2]) is 21%; in the series on Phytophthora infestans (read-out: Efficacy in % found, Table 2, 5 ppm a.i.), 3%. For the same molecule, the “Efficacy in % found” value in the series on Botrytis cinerea (Table 12, 10 ppm a.i.) came out at 31%.
Turning to `Cc1cc(C)nc(Nc2ccccc2)n1` [7.7, pyrimethanil], the pest or weed control at 20 ppm in the series with Alternaria solani (setting [2]) stood at 4%. For the same molecule, the “Efficacy in % found” value with Botrytis cinerea (Table 12, 10 ppm a.i.) was found to be 15%. For the same molecule, the pest or weed control at 10 ppm in the series with Phytophthora infestans (setting [4]) was 10%.
The term chromatographic logP denotes lipophilicity estimated from chromatographic retention. High values mean a more lipophilic compound, low ones a more hydrophilic compound. Turning to `C#CCOc1ccccc1C1CC(c2csc(C3CCN(C(=O)Cn4nc(C(F)F)cc4C(F)F)CC3)n2)=NO1` (stereo not drawn) [(I-1), 2-[3,5-bis(difluoromethyl)-1H-pyrazol-1-yl]-1-[4-(4-{5-[2-(prop-2-yn-1-yloxy)phenyl]-4,5-dihydro-1,2-oxazol-3-yl}-1,3-thiazol-2-yl)piperidin-1-yl]ethanone], the chromatographic logP came out at 3.24 in “physchem” (pH 2.7) and 3.34 in the series “physchem” (pH 7.8). Further, in the series with Venturia inaequalis, the pest or weed control at 25 ppm was 0%. In addition, the pest or weed control at 100 ppm in the series on Venturia inaequalis (Table 10, 100 ppm a.i.) was determined as 8%; with Venturia inaequalis (Table 11, 100 ppm a.i.) it was 0%; in the series with Alternaria solani (setting [2]) it was 0%. In addition, the pest or weed control at 50 ppm with Venturia inaequalis turned out to be 0%; with Alternaria solani (setting [2]) it was 21%. Also, the “Efficacy in % found” value in the series with Sphaerotheca fuliginea (Table 13, 50 ppm a.i.) worked out at 0%; with Botrytis cinerea (Table 12, 25 ppm a.i.) it was 15%; with Botrytis cinerea (Table 12, 50 ppm a.i.) it was 15%. Also, the pest or weed control at 0.01 ppm amounted to 0% with Phytophthora infestans (setting [5]), 42% with Phytophthora infestans (setting [3]), 29% in the series with Phytophthora infestans (setting [4]) and 15% in the series on Phytophthora infestans (setting [6]). In addition, the pest or weed control at 0.0025 ppm in the series with Phytophthora infestans (setting [3]) is 52%; in the series on Phytophthora infestans (setting [7]) it was 64%.
Consider `C#CCOc1cccc(F)c1C1CC(c2csc(C3CCN(C(=O)Cn4nc(C(F)F)cc4C(F)F)CC3)n2)=NO1` (stereo not drawn) [(I-5), 2-[3,5-bis(difluoromethyl)-1H-pyrazol-1-yl]-1-[4-(4-{5-[2-fluoro-6-(prop-2-yn-1-yloxy)phenyl]-4,5-dihydro-1,2-oxazol-3-yl}-1,3-thiazol-2-yl)piperidin-1-yl]ethanone], for which the chromatographic logP in “physchem” (pH 2.7) was 3.15; in “physchem” (pH 7.8), 3.18. Besides, the pest or weed control at 50 ppm with Venturia inaequalis was 0%; in the series with Alternaria solani (setting [2]), 15%. Moreover, the pest or weed control at 100 ppm with Venturia inaequalis (Table 11, 100 ppm a.i.) worked out at 0%. Besides, the “Efficacy in % found” value came out at 29% in the series on Alternaria solani; 10% with Botrytis cinerea (Table 12, 25 ppm a.i.); 38% with Botrytis cinerea (Table 12, 100 ppm a.i.). Also, in the series on Phytophthora infestans (setting [5]), the pest or weed control at 0.01 ppm amounted to 62%. The pest or weed control at 0.005 ppm in the series on Phytophthora infestans (setting [3]) worked out at 43%.
As to `C#CCOc1cccc(Cl)c1C1CC(c2csc(C3CCN(C(=O)Cn4nc(C(F)F)cc4C(F)F)CC3)n2)=NO1` (stereo not drawn) [(I-6), 2-[3,5-bis(difluoromethyl)-1H-pyrazol-1-yl]-1-[4-(4-{5-[2-chloro-6-(prop-2-yn-1-yloxy)phenyl]-4,5-dihydro-1,2-oxazol-3-yl}-1,3-thiazol-2-yl)piperidin-1-yl]ethanone], the values for the chromatographic logP (in the series “physchem” (pH 2.7); in series [1]) were 3.4 and 3.51, respectively. Further, the values for the pest or weed control at 25 ppm in the series on Venturia inaequalis and with Alternaria solani (setting [2]) were 0% and 30%, respectively. In addition, the pest or weed control at 100 ppm with Venturia inaequalis (Table 10, 100 ppm a.i.) came to 4%; in the series on Venturia inaequalis (Table 11, 100 ppm a.i.) it was 38%; in the series on Alternaria solani (setting [2]), 41%. The pest or weed control at 50 ppm in the series on Venturia inaequalis stood at 13%; in the series with Alternaria solani (setting [2]), 35%. In addition, the “Efficacy in % found” value worked out at 29% with Alternaria solani and 0% in the series on Sphaerotheca fuliginea (Table 13, 50 ppm a.i.). In the series on Phytophthora infestans (setting [6]), the pest or weed control at 0.005 ppm was determined as 35%. In addition, the pest or weed control at 0.0025 ppm with Phytophthora infestans (setting [7]) worked out at 73%.
`CC(C)(C)OC(=O)N1CCC(c2nc(C3=NOC(c4c(F)cc(O)cc4F)C3)cs2)CC1` (stereo not drawn) [tert-butyl 4-{4-[5-(2,6-difluoro-4-hydroxyphenyl)-4,5-dihydro-1,2-oxazol-3-yl]-1,3-thiazol-2-yl}piperidine-1-carboxylate] yielded a chromatographic logP in the series “physchem” (pH 2.7) of 3.24.
As to mancozeb [5.23], the “Efficacy in % found” value in the series with Alternaria solani is listed as 0%; in the series with Botrytis cinerea (Table 12, 5 ppm a.i.), 0%.
